Test results: patent US11649255B2, “Indazoles as hematopoietic progenitor kinase 1 (HPK1) inhibitors and methods using same” (1st Biotherapeutics, Inc., priority 2020, dated 2023)
pIC50: −log10 of the molar value.

Each molecule was assayed against recombinant human HPK1 (Homo sapiens (Human), UniProt Q92918) (assay: HPK1 kinase assay (ADP-Glo)). Details: 25 μM ATP, MBP substrate.
Type: biochemical
How it was run: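 Activity was read as ADP formed, detected by ADP-Glo luminescence after the reaction of 5 ng recombinant human HPK1 with MBP and ATP (stocks 0.5 μg/μl and 25 μM) for 40 min at 30 °C. Buffer was Tris pH 7.5 with MgCl2, BSA and DTT, with compound in 0.5% DMSO. IC50 came from inhibition curves.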

recombinant human HPK1, sequence (Q92918 whole entry): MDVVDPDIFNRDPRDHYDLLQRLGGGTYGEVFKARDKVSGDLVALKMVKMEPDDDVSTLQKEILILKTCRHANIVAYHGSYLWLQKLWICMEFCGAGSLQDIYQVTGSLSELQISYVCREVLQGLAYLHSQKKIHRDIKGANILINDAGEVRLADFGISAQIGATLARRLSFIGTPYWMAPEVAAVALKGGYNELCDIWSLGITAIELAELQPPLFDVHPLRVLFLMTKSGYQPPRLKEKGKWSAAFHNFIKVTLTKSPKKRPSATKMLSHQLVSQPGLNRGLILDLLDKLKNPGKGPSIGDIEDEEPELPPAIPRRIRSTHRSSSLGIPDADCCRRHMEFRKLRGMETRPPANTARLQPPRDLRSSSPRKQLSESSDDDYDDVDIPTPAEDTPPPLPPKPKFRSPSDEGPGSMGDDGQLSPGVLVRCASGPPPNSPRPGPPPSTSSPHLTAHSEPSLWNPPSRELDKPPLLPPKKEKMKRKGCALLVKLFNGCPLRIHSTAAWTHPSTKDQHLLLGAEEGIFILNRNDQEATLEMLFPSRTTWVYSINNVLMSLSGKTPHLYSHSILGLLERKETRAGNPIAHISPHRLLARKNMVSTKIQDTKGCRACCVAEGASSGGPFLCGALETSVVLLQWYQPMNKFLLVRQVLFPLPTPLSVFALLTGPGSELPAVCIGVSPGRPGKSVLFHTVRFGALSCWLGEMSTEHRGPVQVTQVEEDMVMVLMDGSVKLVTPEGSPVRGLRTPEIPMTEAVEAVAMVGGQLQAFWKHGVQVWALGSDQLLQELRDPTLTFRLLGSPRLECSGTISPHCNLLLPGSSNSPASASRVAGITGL

Structure (SMILES)	pIC50
CNC(=O)c1c(F)c(Cl)c(-c2ccc3nc(NC(=O)[C@@H]4C[C@@H]4F)cn3c2)c2cn[nH]c12 [Example 321, 5-chloro-6-fluoro-4-(2-((1S,2S)-2-fluorocyclopropane-1-carboxamido)imidazo[1,2-a]pyridin-6-yl)-N-methyl-1H-indazole-7-carboxamide]	> 7.00
CC(=O)c1c(F)c(C)c(-c2ccc3nc(NC(=O)[C@@H]4C[C@@H]4F)cn3c2)c2cn[nH]c12 [Example 322, (1S,2S)-N-(6-(7-acetyl-6-fluoro-5-methyl-1H-indazol-4-yl)imidazo[1,2-a]pyridin-2-yl)-2-fluorocyclopropane-1-carboxamide]	6.30 to 7.00
CCOc1c(F)cc2[nH]ncc2c1-c1ccc2nc(NC(=O)[C@@H]3C[C@@H]3F)cn2c1 [Example 328, (1S,2S)-N-(6-(5-ethoxy-6-fluoro-1H-indazol-4-yl)imidazo[1,2-a]pyridin-2-yl)-2-fluorocyclopropane-1-carboxamide]	> 7.00
O=C(Nc1cn2cc(-c3c(Cl)c(F)c(C(F)F)c4[nH]ncc34)ccc2n1)[C@@H]1C[C@@H]1F [Example 331, (1S,2S)-N-(6-(5-chloro-7-(difluoromethyl)-6-fluoro-1H-indazol-4-yl)imidazo[1,2-a]pyridin-2-yl)-2-fluorocyclopropane-1-carboxamide]	> 7.00
O=C(Nc1cn2cc(-c3c(Cl)c(F)c(N4CCCC4=O)c4[nH]ncc34)ccc2n1)[C@@H]1C[C@@H]1F [Example 336, (1S,2S)-N-(6-(5-chloro-6-fluoro-7-(2-oxopyrrolidin-1-yl)-1H-indazol-4-yl)imidazo[1,2-a]pyridin-2-yl)-2-fluorocyclopropane-1-carboxamide]	> 7.00
CN(c1ccccn1)c1c(F)c(Cl)c(-c2ccc3nc(NC(=O)[C@@H]4C[C@@H]4F)cn3c2)c2cn[nH]c12 [Example 337, (1S,2S)-N-(6-(5-chloro-6-fluoro-7-(methyl(pyridin-2-yl)amino)-1H-indazol-4-yl)imidazo[1,2-a]pyridin-2-yl)-2-fluorocyclopropane-1-carboxamide]	> 7.00
CCc1c(F)c(C(F)(F)F)c2[nH]ncc2c1-c1ccc2nc(NC(=O)[C@@H]3C[C@@H]3F)cn2c1 [Example 339, (1S,2S)-N-(6-(5-ethyl-6-fluoro-7-(trifluoromethyl)-1H-indazol-4-yl)imidazo[1,2-a]pyridin-2-yl)-2-fluorocyclopropane-1-carboxamide]	> 7.00

The next lines start with the values.

pIC50	Structure (SMILES)
> 7.00	CC(=O)c1c(F)c(Cl)c(-c2ccc3nc(NC(=O)[C@@H]4C[C@@H]4F)cn3c2)c2cn[nH]c12 [Example 319, (1S,2S)-N-(6-(7-acetyl-5-chloro-6-fluoro-1H-indazol-4-yl)imidazo[1,2-a]pyridin-2-yl)-2-fluorocyclopropane-1-carboxamide]
> 7.00	O=C(Nc1cn2cc(-c3c(Cl)c(F)c(F)c4[nH]ncc34)ccc2n1)[C@@H]1C[C@@H]1F [Example 323, (1S,2S)-N-(6-(5-chloro-6,7-difluoro-1H-indazol-4-yl)imidazo[1,2-a]pyridin-2-yl)-2-fluorocyclopropane-1-carboxamide]
< 6.00	NC(=O)c1c(F)c(Cl)c(-c2ccc3nc(NC(=O)[C@@H]4C[C@@H]4F)cn3c2)c2cn[nH]c12 [Example 325, 5-chloro-6-fluoro-4-(2-((1S,2S)-2-fluorocyclopropane-1-carboxamido)imidazo[1,2-a]pyridin-6-yl)-1H-indazole-7-carboxamide]
> 7.00	CN(C)c1c(F)cc(-c2ccc3nc(NC(=O)[C@@H]4C[C@@H]4F)cn3c2)c2cn[nH]c12 [Example 335, (1S,2S)-N-(6-(7-(dimethylamino)-6-fluoro-1H-indazol-4-yl)imidazo[1,2-a]pyridin-2-yl)-2-fluorocyclopropane-1-carboxamide]
6.30 to 7.00	CNC(=O)c1c(F)c(C)c(-c2ccc3nc(NC(=O)[C@@H]4C[C@@H]4F)cn3c2)c2cn[nH]c12 [Example 338, 6-fluoro-4-(2-((1S,2S)-2-fluorocyclopropane-1-carboxamido)imidazo[1,2-a]pyridin-6-yl)-N,5-dimethyl-1H-indazole-7-carboxamide]
